Data set [1] in a line: Solubility of LD in citrate buffered LDEE.HCl solutions near pH 4.5. To be noted: for solubility: citrate buffered aqueous solution, 25 °C, thermodynamic from solid, solubility of LD, citrate buffered.
For data set [2] the following is noted: 25° C., cited from earlier work.
The nature of data set [3]: Pharmacokinetic study of infusion of LDEE.HCl formulation in minipigs. The settings on record: for concentration at 1 h: 1 hour after start of 16 h s.c. infusion of 1,142 mg LDEE; for concentration at 2 h: 2 hour after start of 16 h s.c. infusion of 1,142 mg LDEE; for concentration at 4 h: 4 hour after start of 16 h s.c. infusion of 1,142 mg LDEE; for concentration at 8 h: 8 hour after start of 16 h s.c. infusion of 1,142 mg LDEE; for concentration at 16 h: 16 hour after start of 16 h s.c. infusion of 1,142 mg LDEE. In kind it is in vivo. The procedure:
Citrate buffered LDEE.HCl solutions having a pH of 4.5-5.0 were infused into the neck/shoulder regions of juvenile minipigs weighing about 10 kgs. Two minipigs were treated. On each minipig, the solutions were simultaneously infused at two infusion sites, one on the left neck/shoulder and one on the right neck/shoulder. A total of 5.24 mL of solution containing 218 mg/mL LDEE was infused into each minipig over a period of 16 hours, delivering a total dose of 1,142 mg LDEE to each minipig. The dose was split equally between the two infusion sites, with each infusion site receiving 571 mg LDEE in 2.62 mL over 16 hours.
Blood samples were collected at times 0 (pre-dose), 30 minutes, and 1, 2, 4, 8 and 16 hours after the start of the infusion. Approximately 3 mL whole blood was collected from the jugular vein. The whole blood was collected into tubes containing K2 EDTA as the anticoagulant. Immediately after collection the samples were centrifuged for ˜15 minutes at ˜3000 RPM, at ˜4° C. Each plasma sample was then transferred to a plastic cryovial containing sodium metabisulfite and sodium fluoride as preservatives. After the samples were processed they were placed on dry ice until movement to storage at ˜−70 degrees Celsius. The samples were analyzed for LDEE using LC-MS.

Data set [4] can be described thus: Hydrolysis of LDEE salts to LD in aqueous solution, monitored by HPLC. In kind it is physicochemical.
Data set [5] can be described thus: physchem. To be noted: 25 °C, pH 4.5, aqueous buffer, thermodynamic from solid, solubility of LD.
A short description of data set [6]: Achievable concentration and density of concentrated LDEE salt solutions. The settings on record: LDEE acetate in water/acetic acid, pH 4.7.
The nature of data set [7]: Precipitation of LD from / clarity of LDEE solutions on holding.
The test system of data set [8] is juvenile minipigs. As to the kind of experiment: Subcutaneous infusion in minipigs, symptoms at infusion site. In kind it is in vivo, minipig. The settings on record: s.c. two sites, 218 mg/mL, 1,142 mg LDEE over 16 hours. As to the method:
Citrate buffered LDEE.HCl solutions having a pH of 4.5-5.0 were infused into the shoulders of juvenile minipigs weighing about 10 kgs.
Citrate buffered LDEE.HCl solutions having a pH of 4.5-5.0 were infused into the neck/shoulder regions of juvenile minipigs weighing about 10 kgs. Two minipigs were treated. On each minipig, the solutions were simultaneously infused at two infusion sites, one on the left neck/shoulder and one on the right neck/shoulder. […] The dose was split equally between the two infusion sites, with each infusion site receiving 571 mg LDEE in 2.62 mL over 16 hours.

Data set [9] is described as follows: Estimated / projected shelf life and operational life (time to LD saturation). To be noted: about 2.65 M LDEE.HCl, constant pH 5.1, 23±2° C.
[10] abbreviates: minipig, in vivo, sc, 1142 mg, plasma, read-out: LD Concentration, Minipig #1.
The mark [11] stands for this setting: minipig, in vivo, sc, 1142 mg, plasma, read-out: LD Concentration, Minipig #2.
The mark [12] stands for this setting: plasma, Pre-dose, 16 h s.c. infusion of 1,142 mg LDEE.
The mark [13] stands for this setting: minipig, plasma, sc, 1142 mg, plasma, read-out: LDEE Concentration, Minipig #1.
The mark [14] stands for this setting: minipig, plasma, sc, 1142 mg, plasma, read-out: LDEE Concentration, Minipig #2.

For orientation: solubility means how much of the substance goes into solution per volume. Read a high solubility as much dissolved substance.

≈ marks a conversion by molar mass, not a printed value. Like-named read-outs stand apart in the source and are kept apart here.

For `N[C@@H](Cc1ccc(O)c(O)c1)C(=O)O` [LD, levodopa], the solubility was around 34 mM (≈ 6.7 mg/mL) in data set [1] (pH 4.5, aqueous buffer, about pH 4.5, no LDEE.HCl); around 51 mM (≈ 10.1 mg/mL) in data set [1] (pH 4.5, aqueous with cosolvent or surfactant or cyclodextrin, about pH 4.5, 1.3 M LDEE.HCl); around 86 mM (≈ 17 mg/mL) in data set [1] (pH 4.5, aqueous with cosolvent or surfactant or cyclodextrin, about pH 4.5, about 2.6 M LDEE.HCl); at least 5800 µg/mL in data set [5]. The “solubility of LD in 2.7 M LDEE.HCl relative to absence of LDEE.HCl” value in [1] (near pH 4.5) is listed as “about three times more soluble”. The “solubility of LD” value in data set [1] (near pH 4.5, 2.7 M LDEE.HCl, about 25±1° C.) is “about 17 g per liter”. Moreover, the solubility of levodopa entry in data set [2] (neutral pH) is recorded as “about 1.65 g per liter”; in [2] (pH 5), “about 2.8 g per liter”. Besides, the concentration at 30 min was 716 ng/mL in data set [3] (minipig, in vivo, sc, 1142 mg, plasma, 30 minutes after start of 16 h s.c. infusion of 1,142 mg LDEE, read-out: LD Concentration, Minipig #1); 1180 ng/mL in data set [3] (minipig, in vivo, sc, 1142 mg, plasma, 30 minutes after start of 16 h s.c. infusion of 1,142 mg LDEE, read-out: LD Concentration, Minipig #2); above 700 ng/mL in [3] (minipig, plasma, subcutaneous, 114.2 mg/kg, minipigs, LDEE 114.2 mg/kg s.c. over 16 hours, read-out: circulating plasma LD concentration achieved within 30 minutes of initiation of infusion). Besides, the values for the concentration at 1 h in data set [3] (setting [10]) and in [3] (setting [11]) were 694 ng/mL and 1050 ng/mL, respectively. Further, the values for the concentration at 2 h in data set [3] (setting [10]) and in data set [3] (setting [11]) were 1540 ng/mL and 1370 ng/mL, respectively. The concentration at 4 h is 1590 ng/mL in data set [3] (setting [10]) and 2490 ng/mL in data set [3] (setting [11]). The concentration at 8 h in data set [3] (setting [10]) was found to be 3180 ng/mL; in [3] (setting [11]), 2370 ng/mL. The concentration at 16 h in data set [3] (setting [10]) was 1550 ng/mL; in data set [3] (setting [11]), 1830 ng/mL. For the same compound, in data set [3] (minipig, plasma, subcutaneous, 114.2 mg/kg, minipigs, LDEE 114.2 mg/kg s.c. over 16 hours, read-out: circulating plasma LD concentration achieved within 60 minutes of initiation of infusion), the concentration at 60 min is above 400 ng/mL. Besides, the “circulating plasma LD concentration continuously maintained for at least 8 hours” value in data set [3] (minipigs, LDEE 114.2 mg/kg s.c. over 16 hours, lower bound) is on record as “greater than 1,600 ng/mL”; in [3] (minipigs, LDEE 114.2 mg/kg s.c. over 16 hours, upper bound), “less than 5,000 ng/mL”. For the same compound, the “LD Concentration, Minipig #1” value in [3] (setting [12]) is given as 9.0 ng/mL. Moreover, the “LD Concentration, Minipig #2” value in [3] (setting [12]) was 31.0 ng/mL. Also, the “LD concentration in solution (supersaturated, no precipitation until seeded)” value in data set [4] (about 2.65 M LDEE.HCl, pH 5.1, after 7 days at 23±2° C.) was “about 35 g per liter”.
Take `CC(=O)O.CCOC(=O)[C@@H](N)Cc1ccc(O)c(O)c1` [LDEE acetate]: the “concentration of clear solution” value in [6] is listed as “about 2.4 M”. Also, in data set [4] (about 2.4 M LDEE acetate, pH 4.7, about 23±2° C.), the “initial rate of hydrolysis” value is given as “about 4.0±0.4 % per day”. In addition, the “% of the LDEE hydrolyzed” value in data set [4] (about 2.4 M LDEE acetate, pH 4.7, about 23±2° C., 24 h) is listed as 4.5%. In data set [4] (about 2.4 M LDEE acetate, pH 4.7, about 23±2° C., 96 hours), the “% of the LDEE hydrolyzed to LD” value is 14.5%. Also, in data set [4] (about pH 4.5, about 23° C.), the “rate of hydrolysis relative to LDEE.HCl” value is on record as “about 3 times”. In addition, the “precipitation of LD” value in data set [7] (about 1.2 M LDEE + LDEE acetate suspension, pH about 7.01, about 37° C., 3 hours) is listed as “no heavy precipitation”; in data set [7] (about 1.2 M LDEE + LDEE acetate, pH about 7.01, 37° C., 16 hours) it was “extensive precipitation of LD”. Also, in [7] (about 2.4 M LDEE acetate, pH 4.7, about 23±2° C., after 96 hours), the appearance of solution result is recorded as “clear, i.e., precipitate free”.
As for `CCOC(=O)[C@@H](N)Cc1ccc(O)c(O)c1` [LDEE, levodopa ethyl ester], the “swelling at infusion sites at end of infusion” value in data set [8] (resolved over 24 hours) is on record as “mild swelling in an area of about 1×2 cm”. Further, the subsequent subcutaneous nodules entry in [8] (resolved over about one week) is “small subcutaneous nodules of about 1×1 cm”. Also, in [9], the “expected time to LD precipitation (operational life)” value is on record as “about 4 days”. Further, the concentration at 30 min in [3] (minipig, plasma, sc, 1142 mg, plasma, 30 minutes after start of 16 h s.c. infusion of 1,142 mg LDEE, read-out: LDEE Concentration, Minipig #1) was found to be 6.2 ng/mL. In data set [3] (minipig, plasma, sc, 1142 mg, plasma, 30 minutes after start of 16 h s.c. infusion of 1,142 mg LDEE, read-out: LDEE Concentration, Minipig #2), the concentration at 30 min was 6.2 ng/mL. In data set [3] (setting [13]), the concentration at 1 h worked out at 6.4 ng/mL, the concentration at 2 h was found to be 6.3 ng/mL, the concentration at 4 h is 6.8 ng/mL and the concentration at 8 h stood at 10 ng/mL. Besides, the concentration at 16 h in [3] (setting [13]) is 10 ng/mL. Further, in [3] (setting [14]), the concentration at 1 h was 4.8 ng/mL, the concentration at 2 h turned out to be 6.3 ng/mL, the concentration at 4 h turned out to be 7.9 ng/mL and the concentration at 8 h turned out to be 10.9 ng/mL. Further, the concentration at 16 h in data set [3] (setting [14]) stood at 11.5 ng/mL. The “circulating plasma LDEE concentration during infusion” value in data set [3] (minipigs, LDEE formulation 114.2 mg/kg s.c. over 16 hours) is listed as at most 15 ng/mL. In data set [3] (setting [12]), the “LDEE Concentration, Minipig #1” value is reported as 3.6 ng/mL and the “LDEE Concentration, Minipig #2” value is on record as 3.3 ng/mL. In data set [4] (about 2.65 M LDEE.HCl, pH 5.1, 23±2° C.), the “% of the LDEE hydrolyzed daily” value is reported as “about 0.88%”. Besides, the “% of the LDEE hydrolyzed to LD” value in [4] (about 2.65 M LDEE.HCl, pH 5.1 citrate, 7 days at 23±2° C., nitrogen flushed) is recorded as 6.2%. In addition, in [4] (near pH 7, about 37° C.), the “rate of hydrolysis relative to LDME” value is given as “about four times faster”. Besides, in [7] (2.6 M LDEE.HCl, pH 5.5 (trisodium citrate), stirring at ambient temperature), the “time to LD precipitation” value is “about 30 hours”. The “precipitation of LD” value in data set [7] (about 0.25M LDEE in physiological saline, 16 hours at 37° C.) is given as “extensive precipitation of LD”.

(Values after patent US20140088192A1, “SUBCUTANEOUSLY INFUSIBLE LEVODOPA PRODRUG COMPOSITIONS AND METHODS OF INFUSION” (SynAgile Corporation, priority 2010, published 2014).)
